Test [1] has as its system MOLM-14 (acute myeloid leukemia) cell line. The experiment in a line: CellTiter-Glo luminescent cell viability assay, MOLM-14. In kind it is cell-based, human. To be noted: Homo sapiens; for viability at 4 µM: MOLM-14, compound at 4 μM; for viability at 4 µM / viability at 10 µM: 72 h; for viability at 10 µM: MOLM-14, compound at 10 μM; for EC50: MOLM-14 cell line, 72 h incubation, CellTiter-Glo, read-out: EC50, growth inhibition of MOLM-14. In outline: (§1)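 Each line grew in its own medium (DMEM low glucose for HepG2, DMEM for Huh7 and PANC-1, MEM alpha for MOLM-14) plus 10% FBS. Three-day compound treatment preceded luminescence reading; EC50 reflects 50% loss of diluent-control signal.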
For orientation: In ATP-based viability assays light output follows the ATP content of the culture.

The subject of test [2] is A375 (malignant melanoma) cell line. The test can be described thus: CellTiter-Glo luminescent cell viability assay, A375. In kind it is cell-based, human. To be noted: Homo sapiens, A-375; for viability at 4 µM: A375, compound at 4 μM; for viability at 4 µM / viability at 10 µM: 72 h; for viability at 10 µM: A375, compound at 10 μM; for EC50: A375 cell line, 72 h incubation, CellTiter-Glo, read-out: EC50, growth inhibition of A375. In a few lines: (§2)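 Adherent cells grow overnight, or suspension cells are seeded 1 h ahead; compound dilutions are then added and plates incubated 72 h at 37 °C. After 30 min at room temperature, CellTiter-Glo reagent is added and luminescence recorded. EC50 derives from signal relative to diluent control.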

The subject of test [3] is HCT-116 (colorectal carcinoma) cell line. The test can be described thus: CellTiter-Glo luminescent cell viability assay, HCT-116. To be noted: Homo sapiens; for viability at 4 µM: HCT-116, compound at 4 μM; for viability at 4 µM / viability at 10 µM: 72 h; for viability at 10 µM: HCT-116, compound at 10 μM; for EC50: HCT-116 cell line, 72 h incubation, CellTiter-Glo, read-out: EC50, growth inhibition of HCT-116. In kind it is cell-based, human. In a few lines:
as §2

For test [4], the system named is Huh7 (hepatocellular carcinoma) cell line. The test can be described thus: CellTiter-Glo luminescent cell viability assay, Huh7. The class given is cell-based, human. Particulars: Homo sapiens, Huh-7; for viability at 4 µM: Huh7, compound at 4 μM; for viability at 4 µM / viability at 10 µM: 72 h; for viability at 10 µM: Huh7, compound at 10 μM; for EC50: Huh7 cell line, 72 h incubation, CellTiter-Glo, read-out: EC50, growth inhibition of Huh7. In a few lines: as §1

For test [5], the system named is 786-O (renal adenocarcinoma) cell line. The experiment in a line: CellTiter-Glo luminescent cell viability assay, 786-O. In kind it is cell-based, human. Particulars: Homo sapiens, 786-0; for EC50: 786-O cell line, 72 h incubation, CellTiter-Glo, read-out: EC50, growth inhibition of 786-O; for viability at 4 µM / viability at 10 µM: 786-O, 72 h; for viability at 4 µM: compound at 4 μM; for viability at 10 µM: compound at 10 μM. In a few lines:
as §2

Test [6] has as its system HepG2 (hepatocellular carcinoma) cell line. The experiment in a line: CellTiter-Glo luminescent cell viability assay, HepG2. The class given is cell-based, human. To be noted: Homo sapiens; for viability at 4 µM / viability at 10 µM: HepG2, HepG, 72 h; for viability at 4 µM: compound at 4 μM; for viability at 10 µM: compound at 10 μM; for EC50: HepG2 cell line, 72 h incubation, CellTiter-Glo, read-out: EC50, growth inhibition of HepG2. In a few lines: as §1

The test system of test [7] is PANC-1 (prancreatic carcinoma) cell line. The experiment in a line: CellTiter-Glo luminescent cell viability assay, PANC-1. The class given is cell-based. To be noted: Homo sapiens; for viability at 4 µM: PANC-1, 4 μM; for viability at 4 µM / viability at 10 µM: 72 h, % of signal of diluent-treated cultures; for viability at 10 µM: PANC-1, 10 μM; for EC50: PANC-1 cell line, 72 h incubation, CellTiter-Glo, read-out: EC50 (growth inhibition assay of PANC-1 cell line). As to the method:
All cell lines were maintained in medium containing 1% penicillin-streptomycin (Dutscher, P06-07100) and 10% Fetal Bovine Serum (Hyclone Dutscher, RZK35922) cultured at 37° C. with 5% CO2. HepG2 (hepatocellular carcinoma), cell line was cultured in Dulbecco's modified Eagle's medium low glucose (Gibco, 21885025), Huh7 (hepatocellular carcinoma), HCT-116 (colorectal carcinoma), PANC-1 (prancreatic carcinoma) and A375 (malignant melanoma) cell lines were cultured in Dulbecco's modified Eagle's medium (Dutscher, L0103). MOLM-14 (acute myeloid leukemia) cell line was maintained in MEM alpha medium (Gibco, 22561-021). 786-0 (renal adenocarcinoma) cell lines were maintained in RPMI 1640 medium (Dutscher, L0498).
Cell viability was measured using the CellTiter-Glo® luminescent cell viability assay as described by the manufacturer (Promega, Ref G7571) using an Infinite F200Pro luminometer (Tecan). Briefly, for adherent cells, cells were plated onto 96-well plates (white with clear bottom) in 90 μL of media per well and were allowed to grow overnight before the assay. For cells growing in suspension, cells were plated onto 96-well plates 1 h before the assay.
Compounds were resuspended in H2O or DMSO and added at different concentrations to each well, and cell cultures were incubated for 72 h. Each diluent (H2O or DMSO) were used as a control, and all compounds were tested in a constant percentage of H2O or DMSO. On the day of the reading, plates are equilibrated 30 min at room temperature before the addition of 100 μL of CellTiter-Glo® and luminescence was measured using an Infinite F200Pro (Tecan). % cell viability were expressed as a percentage of the signal obtained for cell cultures treated with diluent. EC50 values were determined as the dose of compound required to reduce luminescent values to 50% of the signal obtained for cell cultures treated with diluent. The experimental data were analyzed using a computer program, Graphpad Prism v5 (GraphPad Software, Inc. La Jolla, Calif.). All points were at least done in duplicate.

This is an account of results in patent US10577362B2, “Substituted 2, 4-diamino-quinoline derivatives for use in the treatment of proliferative diseases” (GENOSCIENCE PHARMA, priority 2016, dated 2020).

The term viability denotes a read-out of living cells in per cent, often relative to untreated cells. Usually EC50 stands for the concentration needed to bring the measured effect to its halfway point. As for `CC(C)(C)NC1CCN(c2c(C#N)c(Nc3ccc(F)c(F)c3)nc3ccccc23)CC1` [Compound 3264CN, 2-(3,4-difluorophenylamino)-3-cyano-4-[4-(tert-butylamino)piperidin-1-yl]quinoline], the viability at 4 µM is 0.4% in test [1]; 12.8% in test [2]; 0.3% in test [3]; 11.7% in test [4]; 12.7% in test [5]; 0.5% in test [6]. In addition, the viability at 4 µM in test [7] turned out to be 78.1%. In addition, the viability at 10 µM in test [1] was 0.5%; in test [2] it was 0.4%; in test [3], 0.3%; in test [4], 0.5%; in test [5] it was 0.6%; in test [6], 0.3%. The viability at 10 µM in test [7] was 2.4%. The EC50 in test [1], in test [3], in test [4], in test [5] and in test [6] was 0.5 to 5 µM throughout.
On to `CCN(CC)C1CCCN(c2c(C#N)c(NCc3ccc(Cl)cc3)nc3ccccc23)C1` (centres unmarked) [Compound 160CN, 2-(4-chlorobenzylamino)-3-cyano-4-[3-(diethylamino)piperidin-1-yl]quinoline], for which the viability at 4 µM turned out to be 106% in test [1]; 86.6% in test [2]; 86.4% in test [3]; 89.5% in test [4]; 94.9% in test [5]; 94.5% in test [6]. Besides, the viability at 4 µM in test [7] stood at 99.6%. Besides, the viability at 10 µM turned out to be 94.5% in test [1]; 47.9% in test [2]; 47.3% in test [3]; 62.3% in test [4]; 40% in test [5]; 48.3% in test [6]. For the same compound, the viability at 10 µM in test [7] worked out at 75.3%.
For the compound `CN1CCN(C2CCN(c3c(C#N)c(NCc4ccc(Cl)cc4)nc4ccccc34)CC2)CC1` [Compound 3188CN, 2-(4-chlorobenzylamino)-3-cyano-4-[4-(4-methylpiperazin-1-yl)piperidin-1-yl]quinoline], the viability at 4 µM came out at 108% in test [1]; 52.8% in test [2]; 42.9% in test [3]; 85.2% in test [4]; 64% in test [5]; 82.7% in test [6]. In test [7], the viability at 4 µM was found to be 91.6%. Also, the viability at 10 µM in test [1] came to 0.7%; in test [2], 0.4%; in test [3], 0.5%; in test [4], 0.6%; in test [5], 0.5%; in test [6] it was 0.6%. Moreover, in test [7], the viability at 10 µM turned out to be 3.5%. Besides, the EC50 in test [1], in test [2], in test [3], in test [4], in test [5] and in test [6] was 0.5 to 5 µM throughout. Further, the EC50 in test [7] fell in the range of 5 to 10 µM.
`CCN(CC)C1CCN(c2c(C#N)c(NCc3ccc(Cl)cc3)nc3ccccc23)CC1` [Compound 184CN, 2-(4-chlorobenzylamino)-3-cyano-4-[4-(diethylamino)piperidin-1-yl]quinoline]: the viability at 4 µM amounted to 95.1% in test [1]; 53.7% in test [2]; 65.7% in test [3]; 74.7% in test [4]; 72.6% in test [5]; 72.4% in test [6]. For the same compound, in test [7], the viability at 4 µM was found to be 91.8%. Besides, the viability at 10 µM in test [1] is 0.7%; in test [2], 0.8%; in test [3] it was 0.9%; in test [4], 0.7%; in test [5], 1.1%; in test [6] it was 0.8%. Besides, the viability at 10 µM in test [7] came out at 46.6%. For the same compound, the EC50 fell in the range of 5 to 10 µM in test [1]; 0.5 to 5 µM in test [2]; 5 to 10 µM in test [3]; 5 to 10 µM in test [4]; 5 to 10 µM in test [5]; 5 to 10 µM in test [6]. Besides, the EC50 in test [7] is 5 to 10 µM.
In the case of `N#Cc1c(NCc2ccc(Cl)cc2)nc2ccccc2c1N1CCC(N)CC1` [Compound 3170CN, 2-(4-chlorobenzylamino)-3-cyano-4-(4-aminopiperidin-1-yl)quinoline], the viability at 4 µM in test [1] turned out to be 84.2%; in test [2], 0.5%; in test [3], 0.7%; in test [4] it was 79.4%; in test [5], 36.5%; in test [6], 0.6%. Also, the viability at 4 µM in test [7] turned out to be 89.6%. Further, the viability at 10 µM in test [1] worked out at 0.4%; in test [2], 0.3%; in test [3], 0.2%; in test [4] it was 0.4%; in test [5], 0.4%; in test [6] it was 0.3%. Also, the viability at 10 µM in test [7] came out at 0.6%. The EC50 in test [1], in test [2], in test [3], in test [4], in test [5] and in test [6] was 0.5 to 5 µM throughout. Moreover, in test [7], the EC50 was 5 to 10 µM.
As for `CC(C)(C)NC1CCN(c2c(C#N)c(Nc3cccc(F)c3)nc3ccccc23)CC1` [Compound 3262CN, 2-(3-fluorophenylamino)-3-cyano-4-[4-(tert-butylamino)piperidin-1-yl]quinoline], the viability at 4 µM is 98.7% in test [1]; 74.9% in test [2]; 2.6% in test [3]; 67.9% in test [4]; 42.6% in test [5]; 70.8% in test [6]. For the same compound, in test [7], the viability at 4 µM was determined as 101%. The viability at 10 µM stood at 0.6% in test [1]; 0.6% in test [2]; 0.5% in test [3]; 0.7% in test [4]; 0.7% in test [5]; 0.6% in test [6]. Besides, the viability at 10 µM in test [7] stood at 48%. Besides, the EC50 in test [1] is 5 to 10 µM; in test [2] it was 5 to 10 µM; in test [3], 0.5 to 5 µM; in test [4], 5 to 10 µM; in test [5], 0.5 to 5 µM; in test [6], 5 to 10 µM.
